Patent US20100144886A1, “METHOD FOR TREATING PULMONARY ARTERIAL HYPERTENSION” (AGI Therapeutics Research Limited, priority 2006, published 2010)
Where two headings read alike, the source gives them in different places. Values belong to the molecule of their own block, whether it stands above or below them.

Key:
5-HT2B receptor [1] = biological target: T1, 5-HT2B receptor (Homo sapiens, UniProt P41595)
Experimental: (§1) Each of those receptors was analyzed by methods known in the art. Initial assessment of binding at 100×10^−7 M (10 micro molar) was performed in duplicate.

5-HT6 receptor = 5-HT6 receptor (Homo sapiens, UniProt P50406); conditions: at 100×10^−7 M
Chain of 5-HT6 receptor (P50406 whole entry): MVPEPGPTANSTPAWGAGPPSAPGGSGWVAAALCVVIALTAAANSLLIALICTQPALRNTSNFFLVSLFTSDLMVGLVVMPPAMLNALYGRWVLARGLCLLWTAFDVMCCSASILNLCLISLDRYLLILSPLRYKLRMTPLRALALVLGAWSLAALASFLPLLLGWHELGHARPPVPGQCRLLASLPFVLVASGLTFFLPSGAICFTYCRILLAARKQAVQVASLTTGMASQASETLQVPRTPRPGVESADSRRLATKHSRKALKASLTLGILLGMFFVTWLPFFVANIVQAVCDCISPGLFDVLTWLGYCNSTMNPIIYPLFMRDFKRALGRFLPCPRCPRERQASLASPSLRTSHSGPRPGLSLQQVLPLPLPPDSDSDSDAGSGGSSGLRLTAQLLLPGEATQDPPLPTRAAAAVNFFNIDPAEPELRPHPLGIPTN
Experimental: as §1

5-HT5A receptor = 5-HT5A receptor (Homo sapiens, UniProt P47898); conditions: at 100×10^−7 M
Chain of 5-HT5A receptor (P47898 whole entry): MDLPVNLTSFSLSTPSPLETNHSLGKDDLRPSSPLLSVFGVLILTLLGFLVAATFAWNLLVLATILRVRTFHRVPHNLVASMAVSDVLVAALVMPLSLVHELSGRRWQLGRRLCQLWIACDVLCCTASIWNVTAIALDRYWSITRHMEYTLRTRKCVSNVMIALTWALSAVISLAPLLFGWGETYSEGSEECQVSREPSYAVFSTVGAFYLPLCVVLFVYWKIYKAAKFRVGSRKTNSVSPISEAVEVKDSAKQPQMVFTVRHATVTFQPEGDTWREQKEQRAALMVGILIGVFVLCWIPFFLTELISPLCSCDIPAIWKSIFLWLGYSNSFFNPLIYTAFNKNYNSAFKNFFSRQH
Experimental: as §1

5-HT1D receptor = 5-HT1D receptor (Homo sapiens, UniProt P28221); conditions: at 100×10^−7 M
Chain of 5-HT1D receptor (P28221 whole entry): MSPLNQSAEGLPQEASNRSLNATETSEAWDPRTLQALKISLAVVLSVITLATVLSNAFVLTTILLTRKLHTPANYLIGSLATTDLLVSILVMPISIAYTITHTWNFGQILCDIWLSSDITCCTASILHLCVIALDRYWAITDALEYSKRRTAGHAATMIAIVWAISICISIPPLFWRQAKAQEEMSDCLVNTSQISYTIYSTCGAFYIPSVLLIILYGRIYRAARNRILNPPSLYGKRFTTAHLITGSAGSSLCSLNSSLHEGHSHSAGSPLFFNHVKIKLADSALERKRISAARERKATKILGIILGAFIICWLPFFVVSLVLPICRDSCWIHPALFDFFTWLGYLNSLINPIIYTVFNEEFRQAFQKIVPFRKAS
Experimental: as §1

5-HT4E receptor = 5-HT4E receptor (Homo sapiens, UniProt Q13639); conditions: at 100×10^−7 M
Chain of 5-HT4E receptor (Q13639 1-378 isoform Q13639-5): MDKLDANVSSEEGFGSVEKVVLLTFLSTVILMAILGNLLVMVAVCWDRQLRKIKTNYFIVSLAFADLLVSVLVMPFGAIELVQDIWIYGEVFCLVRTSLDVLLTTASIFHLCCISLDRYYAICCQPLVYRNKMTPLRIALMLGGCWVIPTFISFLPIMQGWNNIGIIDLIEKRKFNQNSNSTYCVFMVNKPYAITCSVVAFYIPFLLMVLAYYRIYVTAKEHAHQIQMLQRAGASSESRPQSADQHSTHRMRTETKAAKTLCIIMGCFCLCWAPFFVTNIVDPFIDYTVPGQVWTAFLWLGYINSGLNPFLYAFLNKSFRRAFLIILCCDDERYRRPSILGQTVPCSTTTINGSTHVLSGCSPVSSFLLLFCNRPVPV
Experimental: as §1

Na channel = Na channel binding
Text: […]. […] […].
Those results are summarized at Table 9.

melatonin ML-1 [2] = system: T2, melatonin ML-1; test: Melatonin ML1 binding affinity; design: species or system chicken
T2 construct: other: chicken brain; other: at 100×10^−7 M
Experimental: as §1

[3] = biological target: L-type calcium channel binding (CCB) site (Rattus norvegicus, UniProt P22002); test: L-type calcium channel binding (CCB) affinity; conditions: rat cerebral cortex; relevant L-type calcium channel site of each blocker
Chain of L-type calcium channel binding (CCB) site (P22002 whole entry): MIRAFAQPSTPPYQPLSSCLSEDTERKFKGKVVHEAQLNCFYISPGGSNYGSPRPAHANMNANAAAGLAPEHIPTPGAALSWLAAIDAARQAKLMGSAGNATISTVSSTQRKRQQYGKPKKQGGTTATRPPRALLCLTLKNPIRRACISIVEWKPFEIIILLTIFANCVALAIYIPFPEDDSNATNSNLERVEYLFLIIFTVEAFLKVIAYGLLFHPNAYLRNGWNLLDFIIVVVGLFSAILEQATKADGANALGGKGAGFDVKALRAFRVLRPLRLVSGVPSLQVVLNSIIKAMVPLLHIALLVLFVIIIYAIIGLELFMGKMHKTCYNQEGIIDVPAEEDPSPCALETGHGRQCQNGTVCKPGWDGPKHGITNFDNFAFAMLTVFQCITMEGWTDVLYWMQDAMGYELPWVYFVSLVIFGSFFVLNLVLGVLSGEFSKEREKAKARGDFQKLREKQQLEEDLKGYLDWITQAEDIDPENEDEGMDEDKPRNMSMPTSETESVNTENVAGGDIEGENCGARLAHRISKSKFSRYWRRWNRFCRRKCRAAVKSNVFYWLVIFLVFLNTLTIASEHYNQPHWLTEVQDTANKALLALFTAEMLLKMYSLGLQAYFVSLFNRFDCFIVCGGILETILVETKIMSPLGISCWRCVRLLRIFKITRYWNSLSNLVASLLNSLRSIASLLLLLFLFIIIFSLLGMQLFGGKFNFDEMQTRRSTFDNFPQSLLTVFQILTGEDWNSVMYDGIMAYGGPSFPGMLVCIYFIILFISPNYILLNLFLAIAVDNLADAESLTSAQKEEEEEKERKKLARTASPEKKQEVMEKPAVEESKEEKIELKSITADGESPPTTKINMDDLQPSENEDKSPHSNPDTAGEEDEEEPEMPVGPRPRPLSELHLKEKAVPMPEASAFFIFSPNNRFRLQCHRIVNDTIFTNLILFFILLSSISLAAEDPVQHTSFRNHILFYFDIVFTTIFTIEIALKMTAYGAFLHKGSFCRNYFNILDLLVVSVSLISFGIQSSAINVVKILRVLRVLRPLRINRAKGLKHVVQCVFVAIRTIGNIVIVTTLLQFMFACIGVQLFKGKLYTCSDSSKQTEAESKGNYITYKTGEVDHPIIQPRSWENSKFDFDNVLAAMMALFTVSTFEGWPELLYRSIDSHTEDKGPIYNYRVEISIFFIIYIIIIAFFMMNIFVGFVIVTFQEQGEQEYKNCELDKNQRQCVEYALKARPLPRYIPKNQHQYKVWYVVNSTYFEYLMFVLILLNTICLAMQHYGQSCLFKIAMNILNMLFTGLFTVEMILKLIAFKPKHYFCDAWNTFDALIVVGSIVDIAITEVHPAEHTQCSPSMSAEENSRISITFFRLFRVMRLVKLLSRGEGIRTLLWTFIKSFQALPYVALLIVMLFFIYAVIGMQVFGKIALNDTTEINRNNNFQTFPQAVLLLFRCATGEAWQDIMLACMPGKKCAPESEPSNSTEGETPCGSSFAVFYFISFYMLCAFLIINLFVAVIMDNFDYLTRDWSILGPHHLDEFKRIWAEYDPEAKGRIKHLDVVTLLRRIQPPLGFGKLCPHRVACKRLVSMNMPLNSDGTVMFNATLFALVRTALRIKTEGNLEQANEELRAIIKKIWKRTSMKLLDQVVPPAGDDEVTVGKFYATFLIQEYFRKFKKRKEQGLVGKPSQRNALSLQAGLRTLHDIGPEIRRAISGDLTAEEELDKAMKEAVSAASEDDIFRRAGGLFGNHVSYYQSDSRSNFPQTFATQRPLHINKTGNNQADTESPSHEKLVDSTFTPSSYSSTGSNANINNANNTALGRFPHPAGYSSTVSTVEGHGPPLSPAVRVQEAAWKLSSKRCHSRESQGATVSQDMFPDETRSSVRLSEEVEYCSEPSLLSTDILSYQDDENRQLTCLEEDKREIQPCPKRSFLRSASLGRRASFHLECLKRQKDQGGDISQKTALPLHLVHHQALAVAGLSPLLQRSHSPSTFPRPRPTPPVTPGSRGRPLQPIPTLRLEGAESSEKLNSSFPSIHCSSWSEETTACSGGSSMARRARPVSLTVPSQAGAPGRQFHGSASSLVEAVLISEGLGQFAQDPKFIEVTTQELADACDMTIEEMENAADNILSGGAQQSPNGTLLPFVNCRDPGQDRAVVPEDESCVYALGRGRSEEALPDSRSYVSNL
Experimental: as §1
The binding activity of the reported receptors was analyzed using the following methods.
There are three distinct binding sites on the L-type calcium channel receptor. Further, the binding affinity at a particular site can be allosterically modulated by binding at one of the other sites. Thus, testing included the affinity of the different types of calcium channel blockers at their particular site of interaction.

melatonin ML-1 [4] = test: Melatonin ML1 binding affinity; design: species or system chicken; conditions: relative potency compared to CCB, Table 2
Experimental: as §1

5-HT2B receptor [5] = biological target: T1, 5-HT2B receptor; test: 5-HT2B binding affinity of racemic verapamil and other calcium channel blockers (5-HT control, Bonhaus method); design: expressed in transfected cells; host or cells: CHO cells; conditions: relative potency compared to CCB, Table 2
Experimental: as §1

T1 sequence (P41595 whole entry): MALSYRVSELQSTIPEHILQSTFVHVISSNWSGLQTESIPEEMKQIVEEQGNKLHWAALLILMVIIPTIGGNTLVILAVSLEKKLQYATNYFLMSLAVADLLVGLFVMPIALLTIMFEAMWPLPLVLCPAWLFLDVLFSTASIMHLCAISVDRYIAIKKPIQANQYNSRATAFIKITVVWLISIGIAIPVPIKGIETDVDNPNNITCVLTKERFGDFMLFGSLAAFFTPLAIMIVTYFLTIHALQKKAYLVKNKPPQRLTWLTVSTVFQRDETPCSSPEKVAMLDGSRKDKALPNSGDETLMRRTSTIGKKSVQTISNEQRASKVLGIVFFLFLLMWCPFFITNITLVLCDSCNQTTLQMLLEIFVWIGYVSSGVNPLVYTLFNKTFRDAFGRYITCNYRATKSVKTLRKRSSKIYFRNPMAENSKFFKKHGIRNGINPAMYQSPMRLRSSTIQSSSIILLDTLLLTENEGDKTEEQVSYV

Structure (SMILES): COc1ccc(CCN(C)CCC[C@](C#N)(c2ccc(OC)c(OC)c2)C(C)C)cc1OC [(R)-verapamil]
% Binding, 5-HT2B (5-HT2B receptor [1]; at 0.1 (×10^−7 M)): 0%
% Binding, 5-HT2B (5-HT2B receptor [1]; at 0.3 (×10^−7 M)): 10%
% Binding, 5-HT2B (5-HT2B receptor [1]; at 1.0 (×10^−7 M)): 39%
% Binding, 5-HT2B (5-HT2B receptor [1]; at 3.0 (×10^−7 M)): 68%
percentage of binding, 5-HT6 (5-HT6 receptor): >100(47%)
percentage of binding, 5-HT5A (5-HT5A receptor): >100(19%)
percentage of binding, 5-HT1D (5-HT1D receptor): >100(17%)
percentage of binding, 5-HT4E (5-HT4E receptor): >100(24%)
IC50 (Na channel): 1800 nM

percentage of binding, ML-1 (melatonin ML-1 [2]; at 100×10^−7 M): >100(9%)
Structure (SMILES): COc1ccc([C@@H]2Sc3ccccc3N(CCN(C)C)C(=O)[C@@H]2OC(C)=O)cc1 [Diltiazem]

Structure (SMILES): COC(=O)C1=C(C)NC(C)=C(C(=O)OC(C)C)C1c1cccc2nonc12 (centres unmarked) [Isradipine]
IC50 [3]: 0.46 nM
(IC50: ML-1)/(IC50: CCB) (melatonin ML-1 [4]): 4,348
IC50 (melatonin ML-1 [2]; chicken brain): 2000 nM
(IC50: 5-HT2B)/(IC50: CCB) (5-HT2B receptor [5]): 21,739
